The source of these data is BindingDB's records for doi:10.1016/S0960-894X(01)80104-9 (1994).

Experiment [1] is described as follows: In vitro thromboxane receptor antagonist against U-46619 induced aggregation of washed human platelets.
The target in experiment [2] is T1, Thromboxane A2 receptor (Homo sapiens, UniProt P21731).
T1 sequence (P21731 whole entry): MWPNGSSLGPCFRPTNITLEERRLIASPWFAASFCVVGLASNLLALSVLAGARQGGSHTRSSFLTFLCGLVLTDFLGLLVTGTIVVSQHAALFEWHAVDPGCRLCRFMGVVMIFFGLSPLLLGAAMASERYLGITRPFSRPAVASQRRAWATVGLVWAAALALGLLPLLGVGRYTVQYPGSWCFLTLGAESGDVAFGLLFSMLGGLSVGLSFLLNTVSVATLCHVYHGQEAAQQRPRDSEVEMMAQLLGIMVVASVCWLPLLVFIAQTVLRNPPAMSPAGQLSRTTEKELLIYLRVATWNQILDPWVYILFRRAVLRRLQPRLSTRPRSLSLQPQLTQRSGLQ
The experiment in a line: In vitro thromboxane receptor antagonist against U-46619 induced aggregation of washed human platelets.

`O=C(O)CCCCO/N=C(/c1cccnc1)c1cccc(C(F)(F)F)c1` [5-[Pyridin-3-yl-(3-trifluoromethyl-phenyl)-methyleneaminooxy]-pentanoic acid]: in experiment [1], the midpoint of inhibition, the IC50, lay at 1280 nM. This counts as single-digit micromolar.

For `O=C(O)CC/C=C\CC[C@H]1[C@@H](OCc2ccc(-c3ccccc3)cc2)CO[C@H]1c1cccnc1` [(Z)-7-[(2R,3R,4R)-4-(Biphenyl-4-ylmethoxy)-2-pyridin-3-yl-tetrahydro-furan-3-yl]-hept-4-enoic acid], 795 nM corresponded to half-maximal inhibition in experiment [1] (IC50). Regarding `O=C(O)CC/C=C\CC[C@H]1[C@H](OCc2ccc(-c3ccccc3)cc2)CO[C@H]1c1cccnc1` [(Z)-7-[(2R,3R,4S)-4-(Biphenyl-4-ylmethoxy)-2-pyridin-3-yl-tetrahydro-furan-3-yl]-hept-4-enoic acid], in experiment [1], the IC50 (commonly the concentration that inhibits the measured activity by half) was 820 nM. With `O=C(O)CC/C=C\CC[C@H]1[C@@H](OCc2ccc(-c3ccccc3)cc2)CO[C@@H]1c1cccnc1` [(Z)-7-[(2S,3R,4R)-4-(Biphenyl-4-ylmethoxy)-2-pyridin-3-yl-tetrahydro-furan-3-yl]-hept-4-enoic acid], the values for the IC50 in experiment [2] and in experiment [1] were 28 nM and 27 nM, respectively. In experiment [1], `O=C(O)CC/C=C\CC[C@@H]1[C@@H](c2cccnc2)OC[C@H]1OCc1ccc(-c2ccccc2)cc1` [(Z)-7-[(2S,3R,4S)-4-(Biphenyl-4-ylmethoxy)-2-pyridin-3-yl-tetrahydro-furan-3-yl]-hept-4-enoic acid] returned an IC50 of 88 nM. This lies in the double-digit nanomolar range.
